The results in this text go back to patent US10550105B2 (Ribon Therapeutics Inc., priority 2018, dated 2020).

A word on the IC50: it is the point on the concentration scale where inhibition reaches its midpoint.

The target in the experiment is PARP7 (Homo sapiens (Human), UniProt Q7Z3E1). Kind of experiment: Enzymatic assay for inhibition of PARP7: TR-FRET displacement of biotinylated Probe A from the TIPARP active site. The conditions noted are these: Table A-1. The class given is binding. The method, then:
20 nL of a dose response curve of each test compound was spotted in black 384-well polystyrene proxiplates (Perkin Elmer) using a Mosquito (TTP Labtech). […] Reactions were incubated at 25° C. for an additional 30 min, then read on an Envision platereader equipped with a LANCE/DELFIA top mirror (Perkin Elmer) using excitation of 320 nm and emission of 615 nm and […] with a 90 μs delay. The ratio of the 665/615 nm emission were calculated for each well to determine the amount of complex of TIPARP and Probe A in each well. […] The Hill Coefficient is normally allowed to float but may also be fixed at 1 in a 3-parameter fit. Y is the % inhibition and x is the compound concentration.

Chain of PARP7 (Q7Z3E1 whole entry): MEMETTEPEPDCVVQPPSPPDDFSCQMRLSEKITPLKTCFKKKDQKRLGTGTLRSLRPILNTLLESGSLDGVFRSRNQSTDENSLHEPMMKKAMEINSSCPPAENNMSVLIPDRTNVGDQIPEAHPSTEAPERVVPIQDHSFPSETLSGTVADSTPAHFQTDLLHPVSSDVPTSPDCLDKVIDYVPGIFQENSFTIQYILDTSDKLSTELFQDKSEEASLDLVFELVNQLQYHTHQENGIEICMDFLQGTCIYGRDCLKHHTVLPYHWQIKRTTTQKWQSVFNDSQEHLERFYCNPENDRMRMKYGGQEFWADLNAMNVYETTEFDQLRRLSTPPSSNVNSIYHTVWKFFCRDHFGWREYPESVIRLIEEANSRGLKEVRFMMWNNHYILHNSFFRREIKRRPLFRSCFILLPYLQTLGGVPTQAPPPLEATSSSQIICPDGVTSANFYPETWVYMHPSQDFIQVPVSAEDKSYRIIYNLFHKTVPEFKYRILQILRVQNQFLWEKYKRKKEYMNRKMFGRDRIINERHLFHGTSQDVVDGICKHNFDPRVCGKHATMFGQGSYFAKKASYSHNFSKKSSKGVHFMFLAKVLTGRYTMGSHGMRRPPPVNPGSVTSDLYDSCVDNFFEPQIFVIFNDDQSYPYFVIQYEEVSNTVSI

As for “6-(4-[3-[(2R)-2-[[6-Oxo-5-(trifluoromethyl)-1,6-dihydropyridazin-4-yl]amino]-2-phenylethoxy]propanoyl]piperazin-1-yl)pyridine-3-carbonitrile [Example 515A]”, the IC50 is not below 1000 nM.

For the compound “6-[4-(3-[[(1S,2S)-1-[[6-Oxo-5-(trifluoromethyl)-1-[[2-(trimethylsilyl)ethoxy]methyl]-1,6-dihydropyridazin-4-yl]amino]-2,3-dihydro-1H-inden-2-yl]oxy]propanoyl)piperazin-1-yl]pyridine-3-carbonitrile [Example 537 Isomer A]”, the IC50 is not below 1000 nM.

Consider `COC[C@@H](COCCC(=O)N1CCN(c2ncc(Cl)cn2)CC1)Oc1cn[nH]c(=O)c1C(F)(F)F` (single isomer, unassigned) [listing 1 of 2 here], for which the IC50 is less than 100 nM.

On to `COC[C@H](COCCC(=O)N1CCN(c2ncc(Cl)cn2)CC1)Oc1cn[nH]c(=O)c1C(F)(F)F` (single isomer, unassigned), for which the IC50 lay within 100 to 1000 nM.

Compound `COC[C@@H](COCCC(=O)N1CCN(c2ncc(Cl)cn2)CC1)Oc1cn[nH]c(=O)c1C(F)(F)F` (single isomer, unassigned) [listing 2 of 2 here] had an IC50 of less than 100 nM.

In the case of `N#Cc1ccc(N2CCN(C(=O)c3cccc(OC[C@H]4c5ccccc5CN4c4cn[nH]c(=O)c4C(F)(F)F)c3)CC2)nc1` (single isomer, unassigned) [Example 18 Isomer A], the IC50 lay in the range of 100 to 1000 nM.

Compound `O=C(c1cccc(OC[C@H]2c3ccccc3CN2c2cn[nH]c(=O)c2C(F)(F)F)c1)N1CCN(c2ccc(C(F)(F)F)cn2)CC1` (single isomer, unassigned) [Example 30 Isomer A] displayed an IC50 not below 1000 nM.

The compound `O=C(c1cccc(OC[C@@H]2c3ccccc3CN2c2cn[nH]c(=O)c2C(F)(F)F)c1)N1CCN(c2ccc(C(F)(F)F)cn2)CC1` (single isomer, unassigned) [Example 30 Isomer B] showed an IC50 of less than 100 nM.

Consider `N#Cc1ccc(N2CCN(C(=O)c3ccc(OC[C@@H]4c5ccccc5CN4c4cn[nH]c(=O)c4C(F)(F)F)cc3)CC2)nc1` (single isomer, unassigned) [Example 35 Isomer A], for which the IC50 was not below 1000 nM.

Compound `N#Cc1ccc(N2CCN(C(=O)c3ccc(OC[C@H]4c5ccccc5CN4c4cn[nH]c(=O)c4C(F)(F)F)cc3)CC2)nc1` (single isomer, unassigned) [Example 35 Isomer B] returned an IC50 of 100 to 1000 nM.

In turn, `N#Cc1ccc(N2CCN(C(=O)c3ccnc(OC[C@@H]4c5ccccc5CN4c4cn[nH]c(=O)c4C(F)(F)F)c3)CC2)nc1` (single isomer, unassigned) [Example 36 Isomer B] yielded an IC50 of less than 100 nM.

As for `N#Cc1ccc(N2CCN(C(=O)c3ccnc(OC[C@@H]4c5ccccc5CN4c4cn[nH]c(=O)c4C(F)(F)F)n3)CC2)nc1` (single isomer, unassigned) [Example 38 Isomer A], the IC50 was less than 100 nM.

In the case of `N#Cc1ccc(N2CCN(C(=O)[C@@H]3CNC[C@@H](OC[C@@H]4CCCN4c4cn[nH]c(=O)c4C(F)(F)F)C3)CC2)nc1` (single isomer, unassigned) [Example 56 Isomer A], the IC50 was less than 100 nM.

`N#Cc1ccc(N2CCN(C(=O)[C@H]3CNC[C@H](OC[C@@H]4CCCN4c4cn[nH]c(=O)c4C(F)(F)F)C3)CC2)nc1` (single isomer, unassigned) [Example 56 Isomer B] displayed an IC50 of 100 to 1000 nM.

On to `N#Cc1ccc(N2CCN(C(=O)[C@H]3CCC[C@H](OC[C@@H]4CCCN4c4cn[nH]c(=O)c4C(F)(F)F)C3)CC2)nc1` (single isomer, unassigned) [Example 57 Isomer A], for which the IC50 lay in the range of 100 to 1000 nM.

As for `N#Cc1ccc(N2CCN(C(=O)[C@@H]3CCC[C@@H](OC[C@@H]4CCCN4c4cn[nH]c(=O)c4C(F)(F)F)C3)CC2)nc1` (single isomer, unassigned) [Example 57 Isomer B], the IC50 was less than 100 nM.

The compound `N#Cc1ccc(N2CCN(C(=O)[C@H]3CCC[C@@H](OC[C@@H]4CCCN4c4cn[nH]c(=O)c4C(F)(F)F)C3)CC2)nc1` (single isomer, unassigned) [Example 57 Isomer C] registered an IC50 of 100 to 1000 nM.

Compound `N#Cc1ccc(N2CCN(C(=O)[C@@H]3CCC[C@H](OC[C@@H]4CCCN4c4cn[nH]c(=O)c4C(F)(F)F)C3)CC2)nc1` (single isomer, unassigned) [Example 57 Isomer D] returned an IC50 of 100 to 1000 nM.

As for `N#Cc1cnc(N2CCN(C(=O)c3cc(OC[C@H]4c5ccccc5CN4c4cn[nH]c(=O)c4C(F)(F)F)ccn3)CC2)nc1` (single isomer, unassigned) [Example 64 Isomer A], the IC50 was not below 1000 nM.

In turn, `N#Cc1cnc(N2CCN(C(=O)c3cc(OC[C@@H]4c5ccccc5CN4c4cn[nH]c(=O)c4C(F)(F)F)ccn3)CC2)nc1` (single isomer, unassigned) [Example 64 Isomer B] displayed an IC50 of less than 100 nM.

Consider `N#Cc1ccc(N2CCN(C(=O)c3cncc(OC[C@@H]4c5ccccc5CN4c4cn[nH]c(=O)c4C(F)(F)F)n3)CC2)nc1` (single isomer, unassigned) [Example 72 Isomer A], for which the IC50 was less than 100 nM.

The compound `N#Cc1ccc(N2CCN(C(=O)CCOC[C@H]3c4ccccc4CN3c3cn[nH]c(=O)c3C(F)(F)F)CC2)nc1` (single isomer, unassigned) [Example 93 Isomer B] yielded an IC50 of 100 to 1000 nM.

As for `C[C@H](COC[C@@H]1CCCN1c1cn[nH]c(=O)c1C(F)(F)F)C(=O)N1CCN(c2ccc(C#N)cn2)CC1` (single isomer, unassigned) [Example 94 Isomer A], the IC50 was less than 100 nM.

The compound `C[C@@H](COC[C@@H]1CCCN1c1cn[nH]c(=O)c1C(F)(F)F)C(=O)N1CCN(c2ccc(C#N)cn2)CC1` (single isomer, unassigned) [Example 94 Isomer B] displayed an IC50 of less than 100 nM.

The compound `N#Cc1ccc(N2CCN(C(=O)C/C=C\OC[C@@H]3CCCN3c3cn[nH]c(=O)c3C(F)(F)F)CC2)nc1` (single isomer, unassigned) [Example 96 Isomer A] came in with an IC50 of less than 100 nM.

Consider `N#Cc1ccc(N2CCN(C(=O)/C=C/COC[C@@H]3CCCN3c3cn[nH]c(=O)c3C(F)(F)F)CC2)nc1` (single isomer, unassigned) [Example 96 Isomer B], for which the IC50 was less than 100 nM.

With `O=C(C[C@@H]1CC[C@H]([C@@H]2CCCN2c2cn[nH]c(=O)c2C(F)(F)F)O1)N1CCN(c2ncc(Cl)cn2)CC1` (single isomer, unassigned) [Example 147C], the IC50 was in the range of 100 to 1000 nM.

`O=c1[nH]ncc(N2Cc3cccc(OC[C@@H]4CCCO4)c3C2)c1C(F)(F)F` (single isomer, unassigned) [Example 222] gave an IC50 of less than 100 nM.

`COC[C@H](COCCC(=O)N1CCN(c2ccc(C#N)cn2)CC1)Nc1cn[nH]c(=O)c1C(F)(F)F` (single isomer, unassigned) [Example 518A] displayed an IC50 not below 1000 nM.

`COC[C@@H](COCCC(=O)N1CCN(c2ccc(C#N)cn2)CC1)Nc1cn[nH]c(=O)c1C(F)(F)F` (single isomer, unassigned) [Example 518B] came in with an IC50 of less than 100 nM.

`COC[C@@H](COCCC(=O)N1CCN(c2ccc(C#N)cn2)CC1)Oc1cn[nH]c(=O)c1C(F)(F)F` (single isomer, unassigned) [Example 532 Isomer A] gave an IC50 of less than 100 nM.

In turn, `COC[C@H](COCCC(=O)N1CCN(c2ccc(C#N)cn2)CC1)Oc1cn[nH]c(=O)c1C(F)(F)F` (single isomer, unassigned) [Example 532 Isomer B] returned an IC50 of 100 to 1000 nM.

`N#Cc1ccc(N2CCN(C(=O)CCO[C@@H]3Cc4ccccc4[C@H]3Nc3cn[nH]c(=O)c3C(F)(F)F)CC2)nc1` (single isomer, unassigned) [Example 537 Isomer B] showed an IC50 of less than 100 nM.

`C[C@H](CC(=O)N1CCN(c2ccc(C#N)cn2)CC1)OCCOc1cn[nH]c(=O)c1C(F)(F)F` (single isomer, unassigned) [Example 538 Isomer A] displayed an IC50 of 100 to 1000 nM.

In turn, `C[C@@H](CC(=O)N1CCN(c2ccc(C#N)cn2)CC1)OCCOc1cn[nH]c(=O)c1C(F)(F)F` (single isomer, unassigned) [Example 538 Isomer B] registered an IC50 of less than 100 nM.

The compound `C[C@@H](COCCC(=O)N1CCN(c2ccc(Cl)cn2)CC1)Oc1cn[nH]c(=O)c1C(F)(F)F` (single isomer, unassigned) [Example 539 Isomer A] registered an IC50 of less than 100 nM.

Turning to `C[C@@H](COc1cn[nH]c(=O)c1C(F)(F)F)OCCC(=O)N1CCN(c2ccc(Cl)cn2)CC1` (single isomer, unassigned) [Example 539 Isomer B], the IC50 fell in the range of 100 to 1000 nM.

In turn, `C[C@H](COc1cn[nH]c(=O)c1C(F)(F)F)OCCC(=O)N1CCN(c2ccc(Cl)cn2)CC1` (single isomer, unassigned) [Example 539 Isomer C] displayed an IC50 of less than 100 nM.

`C[C@H](COCCC(=O)N1CCN(c2ccc(Cl)cn2)CC1)Oc1cn[nH]c(=O)c1C(F)(F)F` (single isomer, unassigned) [Example 539 Isomer D] came in with an IC50 of 100 to 1000 nM.

`C[C@@H](COCCC(=O)N1CCN(c2ncc(Cl)cn2)CC1)Oc1cn[nH]c(=O)c1C(F)(F)F` (single isomer, unassigned) [Example 543 Isomer A] yielded an IC50 of less than 100 nM.

Regarding `C[C@@H](COc1cn[nH]c(=O)c1C(F)(F)F)OCCC(=O)N1CCN(c2ncc(Cl)cn2)CC1` (single isomer, unassigned) [Example 543 Isomer B], the IC50 was less than 100 nM.

Consider `C[C@H](COc1cn[nH]c(=O)c1C(F)(F)F)OCCC(=O)N1CCN(c2ncc(Cl)cn2)CC1` (single isomer, unassigned) [Example 543 Isomer C], for which the IC50 is less than 100 nM.

`C[C@@H](COCCC(=O)N1CCN(c2ncc(C(F)(F)F)cn2)CC1)Oc1cn[nH]c(=O)c1C(F)(F)F` (single isomer, unassigned) [Example 544 Isomer A] registered an IC50 of less than 100 nM.
